Tests used:
[1] = target: T1, human GnRH receptor (Homo sapiens, UniProt P30968); test: Radioligand binding, 125I-GnRH-A displacement, membranes of HEK 293 cells with human GnRH receptor; conditions: read-out: hGnRH IC50
T1 construct: expressed in transfected cells; host or cells: HEK 293 (hGnRH-R/293, from Dr. Stuart Sealfon)
T1 sequence (P30968 1-328): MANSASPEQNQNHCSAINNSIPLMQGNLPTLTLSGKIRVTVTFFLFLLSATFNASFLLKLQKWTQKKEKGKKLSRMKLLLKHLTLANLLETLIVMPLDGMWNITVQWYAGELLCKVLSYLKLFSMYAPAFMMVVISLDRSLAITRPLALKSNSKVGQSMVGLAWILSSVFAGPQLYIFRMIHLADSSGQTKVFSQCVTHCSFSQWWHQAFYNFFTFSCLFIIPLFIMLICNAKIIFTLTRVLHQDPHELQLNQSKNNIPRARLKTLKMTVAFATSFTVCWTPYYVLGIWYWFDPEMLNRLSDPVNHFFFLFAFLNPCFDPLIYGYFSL
How it was run: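 After filtration and PBS washes, bound radioactivity was counted by scintillation and IC50 derived. Identical conditions applied for non-human receptors.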

[2] = target: T2, rat GnRH receptor (Rattus norvegicus, UniProt P30969); test: Radioligand binding, 125I-GnRH-A, rat pituitary membranes; set-up: membranes were prepared from rat pituitary; from tissue; host or cells: rat pituitary; conditions: read-out: rGnRH IC50
T2 sequence (P30969 1-327): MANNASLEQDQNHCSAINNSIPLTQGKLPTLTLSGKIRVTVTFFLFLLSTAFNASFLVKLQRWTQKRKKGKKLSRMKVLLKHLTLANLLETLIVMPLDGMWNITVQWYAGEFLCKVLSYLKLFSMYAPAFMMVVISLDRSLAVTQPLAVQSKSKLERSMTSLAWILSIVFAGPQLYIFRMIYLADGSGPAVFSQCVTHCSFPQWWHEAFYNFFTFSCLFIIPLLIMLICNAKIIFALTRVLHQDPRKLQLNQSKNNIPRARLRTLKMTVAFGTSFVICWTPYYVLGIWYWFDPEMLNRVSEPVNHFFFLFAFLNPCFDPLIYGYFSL
Protocol: All compounds were diluted in 1% DMSO (final assay concentration) in binding assay buffer. […] Reactions were terminated by rapid filtration onto 96-well Packard GF/C filters soaked in 0.1% polyethyleneimine. Filters were washed three times with PBS buffer, dried and counted on a Packard Topcount by liquid scintillation counting.
Assay conditions were identical for assessing compound activities at other species. […] IC50 values for control peptides and test compounds were calculated utilizing GraphPad Prism™ software.
The reaction mixture was vortexed and incubated for 1 min at room temperature. After one min, the mixture was vortexed and allowed to incubate for an additional minute. 2 ml of 0.5 M acetic acid/1% BSA was added to the reaction tube and the mixture was added to a C18 Sep-Pak cartridge. The cartridge was washed with subsequent washes of 5 ml H2O and 5 ml 0.5M acetic acid and then eluted with 5×1 ml of 60% CH3CN/40% 0.5M acetic acid. The eluate was diluted with 3× volume of HPLC buffer A (0.1% TFA in H2O) and loaded onto a C18 column. […] The radioactive fractions (750 ed/fraction) are collected into clean polypropylene tubes containing 100 μl of 10% BSA. Fractions were assessed for biological activity by radioligand binding.

[3] = target: T3, mouse GnRH receptor (Mus musculus, UniProt Q01776); test: Radioligand binding, 125I-GnRH-A, 293 cells expressing mouse GnRH receptors; conditions: read-out: mGnRH IC50
T3 construct: expressed in transfected cells; host or cells: 293 cells
T3 sequence (Q01776 1-327): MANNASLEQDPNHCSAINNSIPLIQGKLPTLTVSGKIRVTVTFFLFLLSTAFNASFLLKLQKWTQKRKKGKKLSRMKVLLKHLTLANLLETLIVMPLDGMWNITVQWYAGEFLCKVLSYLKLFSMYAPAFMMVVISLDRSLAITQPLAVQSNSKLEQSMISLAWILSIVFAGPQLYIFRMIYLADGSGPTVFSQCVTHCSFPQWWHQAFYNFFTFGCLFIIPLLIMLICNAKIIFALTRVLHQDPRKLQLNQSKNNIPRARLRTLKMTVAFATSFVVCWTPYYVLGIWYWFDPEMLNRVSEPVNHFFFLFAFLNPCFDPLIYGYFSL
How it was run: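 Bound label captured on 0.1% polyethyleneimine-treated GF/C filters, washed three times with PBS, counted. IC50 derived; identical set-up for every species.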

Structure (SMILES)	IC50 [1] [nM]	IC50 [2] [nM]	IC50 [3] [nM]
COCCCNC(=O)c1ccc(Cc2cc3c(cc2C)C(C)(C)CCC3(C)C)o1 [Compound 122]	730	1260	
Cc1cc2c(cc1Cc1ccc(C(=O)NCC3CCC(CNc4nccc(Cl)n4)CC3)o1)C(C)(C)CCC2(C)C (centres unmarked) [Compound 93]	8000	5470	
COc1cc(NC(=O)c2ccc(Cc3cc4c(cc3C)C(C)(C)CCC4(C)C)o2)cc(OC)c1OC [Compound 301]	45		38
Cc1cc2c(cc1Cc1ccc(C(=O)NCc3ccc(CNC(=O)C(F)(F)F)cc3)o1)C(C)(C)CCC2(C)C [Compound 104]		1260	
Cc1cc2c(cc1Cc1ccc(C(=O)NCC3CCC(CNC(=O)C(F)(F)F)CC3)o1)C(C)(C)CCC2(C)C (centres unmarked) [Compound 89]	250	2730	
Cc1cc2c(cc1Cc1ccc(C(=O)NC3CCC(NC(=O)C(F)(F)F)CC3)o1)C(C)(C)CCC2(C)C (centres unmarked) [Compound 110]		> 10000	
Cc1cc2c(cc1Cc1ccc(C(=O)NCC3CCCC(CN)C3)o1)C(C)(C)CCC2(C)C (centres unmarked) [Compound 127]	510	910	
Cc1cc2c(cc1Cc1ccc(C(=O)NCC3CCC(CNCc4c(C)noc4C)CC3)o1)C(C)(C)CCC2(C)C (centres unmarked) [Compound 90]	560	1260	
Cc1cc2c(cc1Cc1ccc(C(=O)NC3CCN(C(=O)OC(C)(C)C)C3)o1)C(C)(C)CCC2(C)C (centres unmarked) [Compound 88]		2340	
Cc1cc2c(cc1Cc1ccc(C(=O)Nc3cccnc3)o1)C(C)(C)CCC2(C)C [Compound 78]		1300	
Cc1cc2c(cc1Cc1ccc(C(=O)NCc3cccc(CNc4ncccn4)c3)o1)C(C)(C)CCC2(C)C [Compound 106]	2000	510	
Cc1cc2c(cc1Cc1ccc(C(=O)NCc3ccc(-c4csnn4)cc3)o1)C(C)(C)CCC2(C)C [Compound 79]	250	370	
Cc1cc2c(cc1Cc1ccc(C(=O)N3CCC(CNc4nccc(NCC5CCCO5)n4)CC3)o1)C(C)(C)CCC2(C)C (centres unmarked) [Compound 86.5]	2570	2050	
Cc1cc2c(cc1Cc1ccc(C(=O)NCCCN3CCOCC3)o1)C(C)(C)CCC2(C)C [Compound 83]	620	1740	
Cc1cc2c(cc1Cc1ccc(C(=O)NC3CCNC3)o1)C(C)(C)CCC2(C)C (centres unmarked) [Compound 82]		9200	
Cc1cc2c(cc1Cc1ccc(C(=O)NCC3CCCN(C(=O)OC(C)(C)C)C3)o1)C(C)(C)CCC2(C)C (centres unmarked) [Compound 100]	585	6000	
Cc1cc2c(cc1Cc1ccc(C(=O)NCc3cccc(CNC(=O)C(F)(F)F)c3)o1)C(C)(C)CCC2(C)C [Compound 116]	1170	390	
COC(=O)c1cc(OC)c(OC)c(OC)c1NC(=O)c1ccc(Cc2cc3c(cc2C)C(C)(C)CCC3(C)C)o1 [Compound 118]	380	430	
Cc1cc2c(cc1Cc1ccc(C(=O)Nc3ccc(NC(=O)OC(C)(C)C)cc3)o1)C(C)(C)CCC2(C)C [Compound 101]	> 10000	> 10000	
Cc1cc2c(cc1Cc1ccc(C(=O)Nc3cncc(COC(=O)c4ccc(Cc5cc6c(cc5C)C(C)(C)CCC6(C)C)o4)c3)o1)C(C)(C)CCC2(C)C [Compound 120]	> 10000	> 10000	
Cc1cc2c(cc1Cc1ccc(C(=O)Nc3ccc(C(N)=O)cc3)o1)C(C)(C)CCC2(C)C [Compound 108]		2740	
Cc1cc2c(cc1Cc1ccc(C(=O)NCc3ccc(F)cc3)o1)C(C)(C)CCC2(C)C [Compound 130]	3000	590	
